Where a SMILES comes first, the peptide text is derived from it. Bridges are numbered along the chain shown (N, C = ends). [ ]: non-standard residue; d: D form. Phe(3,4,5-F3) = N[C@@H](Cc1cc(F)c(F)c(F)c1)C(=O)O; Phe(4-F) = N[C@@H](Cc1ccc(F)cc1)C(=O)O; NMeF = CN[C@@H](Cc1ccccc1)C(=O)O; NMehSer = CN[C@@H](CCO)C(=O)O; NMeNle = CCCC[C@H](NC)C(=O)O; dPip = O=C(O)[C@H]1CCCCN1; hSer = N[C@@H](CCO)C(=O)O; NMeA = CN[C@@H](C)C(=O)O; Orn = NCCC[C@H](N)C(=O)O; dNMeA = CN[C@H](C)C(=O)O
The molecules below were run against T1, Human PD-L1/PD-1 (Homo sapiens, UniProt Q9NZQ7) (assay: HTRF Human PD-L1/PD-1 binding assay (PD-1-Ig/PD-L1-His)). Settings: PD-L1-His 10 nM, PD-1-Ig 20 nM; class symbol; read-out: HTRF Human PD-L1/PD-1 Binding Assay IC50 Range.
T1 construct: TVMV protease cleavage site (C); made in house; host or cells: HEK293T cells
Outline: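 HTRF competition using HEK293T-expressed human PD-1(25-167)-Ig at 20 nM and PD-L1(18-239)-His at 10 nM, compound incubated first with PD-L1 for 15 min, then with PD-1 for 15 min. Signal read as 665/620 nm ratio 30 min after adding Eu anti-Ig and APC anti-His antibodies.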

T1 sequence (Q9NZQ7 with tags, fused parts or gaps): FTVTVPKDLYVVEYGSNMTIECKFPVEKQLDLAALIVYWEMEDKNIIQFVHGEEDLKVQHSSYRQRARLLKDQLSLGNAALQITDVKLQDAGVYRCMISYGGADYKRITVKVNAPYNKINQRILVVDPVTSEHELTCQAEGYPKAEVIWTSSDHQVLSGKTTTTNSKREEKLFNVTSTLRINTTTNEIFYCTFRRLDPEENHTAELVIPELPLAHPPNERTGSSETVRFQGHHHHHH

IC50 [nM]	Structure (SMILES)
10 to 99.9	CC(C)C[C@@H]1NC(=O)[C@H](Cc2ccc(O)cc2)NC(=O)[C@H](Cc2c[nH]c3ccccc23)NC(=O)[C@@H](C)N(C)C(=O)[C@H](Cc2ccc(O)cc2)NC(=O)[C@H](Cc2ccccc2)N(C)C(=O)[C@H](C(C)C)NC(=O)[C@H](CC(N)=O)NC(=O)[C@@H](C)N(C)C(=O)[C@H](C)N(C)C(=O)[C@H](Cc2ccccc2)N(C)C(=O)[C@H](Cc2cc(F)c(F)c(F)c2)NC(=O)CSC[C@@H](C(=O)NCC(N)=O)NC1=O [Example 9190] ({CH2CO}-[Phe(3,4,5-F3)][NMeF][NMeA][dNMeA]NV[NMeF]Y[dNMeA]WYLCG-NH2; thioether N-13)
10 to 99.9	CC(C)C[C@@H]1NC(=O)[C@H](Cc2ccc(O)cc2)NC(=O)[C@H](Cc2c[nH]c3ccccc23)NC(=O)[C@@H](C)N(C)C(=O)[C@H](Cc2ccc(O)cc2)NC(=O)[C@H](Cc2ccccc2)N(C)C(=O)[C@H](C(C)C)NC(=O)[C@H](CCC(N)=O)NC(=O)[C@@H](C)N(C)C(=O)[C@H](C)N(C)C(=O)[C@H](Cc2ccccc2)N(C)C(=O)[C@H](Cc2cc(F)c(F)c(F)c2)NC(=O)CSC[C@@H](C(=O)NCC(N)=O)NC1=O [Example 9191] ({CH2CO}-[Phe(3,4,5-F3)][NMeF][NMeA][dNMeA]QV[NMeF]Y[dNMeA]WYLCG-NH2; thioether N-13)
1 to 9.9	CC(C)[C@@H]1NC(=O)[C@H](CC(=O)O)NC(=O)[C@@H](C)N(C)C(=O)[C@H](C)N(C)C(=O)[C@H](Cc2ccccc2)N(C)C(=O)[C@H](Cc2cc(F)c(F)c(F)c2)NC(=O)CSC[C@@H](C(=O)NCC(N)=O)NC(=O)[C@H](CCCN)NC(=O)[C@H](Cc2ccc(O)cc2)NC(=O)[C@H](Cc2c[nH]c3ccccc23)NC(=O)[C@@H](C)N(C)C(=O)[C@H](Cc2ccc(O)cc2)NC(=O)[C@H](Cc2ccccc2)N(C)C1=O [Example 9193] ({CH2CO}-[Phe(3,4,5-F3)][NMeF][NMeA][dNMeA]DV[NMeF]Y[dNMeA]WY[Orn]CG-NH2; thioether N-13)
1 to 9.9	CC(C)[C@@H]1NC(=O)[C@H](CCC(=O)O)NC(=O)[C@@H](C)N(C)C(=O)[C@H](C)N(C)C(=O)[C@H](Cc2ccccc2)N(C)C(=O)[C@H](Cc2cc(F)c(F)c(F)c2)NC(=O)CSC[C@@H](C(=O)NCC(N)=O)NC(=O)[C@H](CCCN)NC(=O)[C@H](Cc2ccc(O)cc2)NC(=O)[C@H](Cc2c[nH]c3ccccc23)NC(=O)[C@@H](C)N(C)C(=O)[C@H](Cc2ccc(O)cc2)NC(=O)[C@H](Cc2ccccc2)N(C)C1=O [Example 9194] ({CH2CO}-[Phe(3,4,5-F3)][NMeF][NMeA][dNMeA]EV[NMeF]Y[dNMeA]WY[Orn]CG-NH2; thioether N-13)
1 to 9.9	CC(C)[C@@H]1NC(=O)[C@H](CC(N)=O)NC(=O)[C@@H](C)N(C)C(=O)[C@H](C)N(C)C(=O)[C@H](Cc2ccccc2)N(C)C(=O)[C@H](Cc2cc(F)c(F)c(F)c2)NC(=O)CSC[C@@H](C(=O)NCC(N)=O)NC(=O)[C@H](CCCN)NC(=O)[C@H](Cc2ccc(O)cc2)NC(=O)[C@H](Cc2c[nH]c3ccccc23)NC(=O)[C@@H](C)N(C)C(=O)[C@H](Cc2ccc(O)cc2)NC(=O)[C@H](Cc2ccccc2)N(C)C1=O [Example 9195] ({CH2CO}-[Phe(3,4,5-F3)][NMeF][NMeA][dNMeA]NV[NMeF]Y[dNMeA]WY[Orn]CG-NH2; thioether N-13)
10 to 99.9	CCCC[C@H]1C(=O)N[C@@H](Cc2ccc(O)cc2)C(=O)N2CCC[C@@H]2C(=O)N[C@@H](Cc2c[nH]c3ccccc23)C(=O)N[C@@H](Cc2ccc(O)cc2)C(=O)N[C@@H](CC(C)C)C(=O)N[C@H](C(=O)NCC(N)=O)CSCC(=O)N[C@@H](Cc2cc(F)c(F)c(F)c2)C(=O)N(C)[C@@H](Cc2ccccc2)C(=O)N(C)[C@@H](CCCC)C(=O)N2CCC[C@@H]2C(=O)N[C@@H](CC(=O)O)C(=O)N[C@@H](C(C)C)C(=O)N1C [Example 9213] ({CH2CO}-[Phe(3,4,5-F3)][NMeF][NMeNle][dP]DV[NMeNle]Y[dP]WYLCG-NH2; thioether N-13)
100 to 990	CCCC[C@H]1C(=O)N[C@@H](Cc2ccc(O)cc2)C(=O)N2CCCC[C@@H]2C(=O)N[C@@H](Cc2c[nH]c3ccccc23)C(=O)N[C@@H](Cc2ccc(O)cc2)C(=O)N[C@@H](CC(C)C)C(=O)N[C@H](C(=O)NCC(N)=O)CSCC(=O)N[C@@H](Cc2ccc(F)cc2)C(=O)N(C)[C@@H](Cc2ccccc2)C(=O)N(C)[C@@H](CCCC)C(=O)N2CCC[C@@H]2C(=O)N[C@@H](CC(=O)O)C(=O)N[C@@H](C(C)C)C(=O)N1C [Example 9214] ({CH2CO}-[Phe(4-F)][NMeF][NMeNle][dP]DV[NMeNle]Y[dPip]WYLCG-NH2; thioether N-13)
10 to 99.9	CCCC[C@H]1C(=O)N[C@@H](CCC(N)=O)C(=O)N2CCC[C@@H]2C(=O)N[C@@H](Cc2c[nH]c3ccccc23)C(=O)N[C@@H](Cc2ccc(O)cc2)C(=O)N[C@@H](CC(C)C)C(=O)N[C@H](C(=O)NCC(N)=O)CSCC(=O)N[C@@H](Cc2ccc(F)cc2)C(=O)N(C)[C@@H](Cc2ccccc2)C(=O)N(C)[C@@H](CCCC)C(=O)N2CCC[C@@H]2C(=O)N[C@@H](CC(=O)O)C(=O)N[C@@H](C(C)C)C(=O)N1C [Example 9215] ({CH2CO}-[Phe(4-F)][NMeF][NMeNle][dP]DV[NMeNle]Q[dP]WYLCG-NH2; thioether N-13)
10 to 99.9	CCCC[C@H]1C(=O)N[C@@H](CCC(N)=O)C(=O)N2CCCC[C@@H]2C(=O)N[C@@H](Cc2c[nH]c3ccccc23)C(=O)N[C@@H](Cc2ccc(O)cc2)C(=O)N[C@@H](CC(C)C)C(=O)N[C@H](C(=O)NCC(N)=O)CSCC(=O)N[C@@H](Cc2ccc(F)cc2)C(=O)N(C)[C@@H](Cc2ccccc2)C(=O)N(C)[C@@H](CCCC)C(=O)N2CCC[C@@H]2C(=O)N[C@@H](CC(=O)O)C(=O)N[C@@H](C(C)C)C(=O)N1C [Example 9216] ({CH2CO}-[Phe(4-F)][NMeF][NMeNle][dP]DV[NMeNle]Q[dPip]WYLCG-NH2; thioether N-13)
100 to 990	CCCC[C@H]1C(=O)N[C@@H](CCC(N)=O)C(=O)N2CCC[C@@H]2C(=O)N[C@@H](Cc2c[nH]c3ccccc23)C(=O)N[C@@H](Cc2ccc(O)cc2)C(=O)N[C@@H](CCCN)C(=O)N[C@H](C(=O)NCC(N)=O)CSCC(=O)N[C@@H](Cc2ccc(F)cc2)C(=O)N(C)[C@@H](Cc2ccccc2)C(=O)N(C)[C@@H](CCCC)C(=O)N2CCC[C@@H]2C(=O)N[C@@H](CC(=O)O)C(=O)N[C@@H](C(C)C)C(=O)N1C [Example 9217] ({CH2CO}-[Phe(4-F)][NMeF][NMeNle][dP]DV[NMeNle]Q[dP]WY[Orn]CG-NH2; thioether N-13)
10 to 99.9	CCCC[C@H]1C(=O)N[C@@H](CCC(N)=O)C(=O)N2CCCC[C@@H]2C(=O)N[C@@H](Cc2c[nH]c3ccccc23)C(=O)N[C@@H](Cc2ccc(O)cc2)C(=O)N[C@@H](CCCN)C(=O)N[C@H](C(=O)NCC(N)=O)CSCC(=O)N[C@@H](Cc2ccc(F)cc2)C(=O)N(C)[C@@H](Cc2ccccc2)C(=O)N(C)[C@@H](CCCC)C(=O)N2CCC[C@@H]2C(=O)N[C@@H](CC(=O)O)C(=O)N[C@@H](C(C)C)C(=O)N1C [Example 9218] ({CH2CO}-[Phe(4-F)][NMeF][NMeNle][dP]DV[NMeNle]Q[dPip]WY[Orn]CG-NH2; thioether N-13)
100 to 990	CCCC[C@H]1C(=O)N2CCC[C@@H]2C(=O)N[C@@H](CC(=O)O)C(=O)N[C@@H](C(C)C)C(=O)N(C)[C@@H](CCOC)C(=O)N[C@@H](Cc2ccc(O)cc2)C(=O)N2CCC[C@@H]2C(=O)N[C@@H](Cc2c[nH]c3ccccc23)C(=O)N[C@@H](Cc2ccc(O)cc2)C(=O)N[C@@H](CC(C)C)C(=O)N[C@H](C(=O)NCC(N)=O)CSCC(=O)N[C@@H](Cc2ccc(F)cc2)C(=O)N(C)[C@@H](Cc2ccccc2)C(=O)N1C [Example 9219] ({CH2CO}-[Phe(4-F)][NMeF][NMeNle][dP]DV[NMehSer](Me)Y[dP]WYLCG-NH2; thioether N-13)
100 to 990	CCCC[C@H]1C(=O)N2CCC[C@@H]2C(=O)N[C@@H](CC(=O)O)C(=O)N[C@@H](C(C)C)C(=O)N(C)[C@@H](CCOC)C(=O)N[C@@H](Cc2ccc(O)cc2)C(=O)N2CCCC[C@@H]2C(=O)N[C@@H](Cc2c[nH]c3ccccc23)C(=O)N[C@@H](Cc2ccc(O)cc2)C(=O)N[C@@H](CC(C)C)C(=O)N[C@H](C(=O)NCC(N)=O)CSCC(=O)N[C@@H](Cc2ccc(F)cc2)C(=O)N(C)[C@@H](Cc2ccccc2)C(=O)N1C [Example 9220] ({CH2CO}-[Phe(4-F)][NMeF][NMeNle][dP]DV[NMehSer](Me)Y[dPip]WYLCG-NH2; thioether N-13)

Same assay, conditions: PD-L1-His 10 nM, PD-1-Ig 20 nM; read-out: HTRF Human PD-L1/PD-1 Binding Assay IC50

IC50 [nM]	Structure (SMILES)
14	CC(C)C[C@@H]1NC(=O)[C@H](Cc2ccc(O)cc2)NC(=O)[C@H](Cc2c[nH]c3ccccc23)NC(=O)[C@@H](C)N(C)C(=O)[C@H](Cc2ccc(O)cc2)NC(=O)[C@H](Cc2ccccc2)N(C)C(=O)[C@H](C(C)C)NC(=O)[C@H](CCO)NC(=O)[C@@H](C)N(C)C(=O)[C@H](C)N(C)C(=O)[C@H](Cc2ccccc2)N(C)C(=O)[C@H](Cc2cc(F)c(F)c(F)c2)NC(=O)CSC[C@@H](C(=O)NCC(N)=O)NC1=O [Example 9192] ({CH2CO}-[Phe(3,4,5-F3)][NMeF][NMeA][dNMeA][hSer]V[NMeF]Y[dNMeA]WYLCG-NH2; thioether N-13)
4.5	CC(C)[C@@H]1NC(=O)[C@H](CCC(N)=O)NC(=O)[C@@H](C)N(C)C(=O)[C@H](C)N(C)C(=O)[C@H](Cc2ccccc2)N(C)C(=O)[C@H](Cc2cc(F)c(F)c(F)c2)NC(=O)CSC[C@@H](C(=O)NCC(N)=O)NC(=O)[C@H](CCCN)NC(=O)[C@H](Cc2ccc(O)cc2)NC(=O)[C@H](Cc2c[nH]c3ccccc23)NC(=O)[C@@H](C)N(C)C(=O)[C@H](Cc2ccc(O)cc2)NC(=O)[C@H](Cc2ccccc2)N(C)C1=O [Example 9196] ({CH2CO}-[Phe(3,4,5-F3)][NMeF][NMeA][dNMeA]QV[NMeF]Y[dNMeA]WY[Orn]CG-NH2; thioether N-13)

Reference: patent US10538555B2, “Macrocyclic inhibitors of the PD-1/PD-L1 and CD80(B7-1)/PD-L1 protein/protein interactions” (BRISTOL-MYERS SQUIBB COMPANY, priority 2014, dated 2020)
